Literature values, collected in US10226042B2, “Synergistic pre-emergent and post-emergent weed control compositions and methods of use thereof” (BAYER INTELLECTUAL PROPERTY GMBH, priority 2009, dated 2019).

Details: stated in words, no test described

| Structure (SMILES) | water solubility |
| --- | --- |
| O=C(O)COc1ccc(Cl)cc1Cl [2,4-D] | water soluble |
| COc1c(Cl)ccc(Cl)c1C(=O)O [dicamba] | water soluble |
